Residues, ends and D or L forms follow the SMILES beside them. *: point of attachment. X23 = COC(=O)[C@@H](CS*)OC(=O)N(C)Cc1ccc(-c2[nH]c3cc(F)cc4c3c2CCNC4=O)cc1; X24 = CN(Cc1ccc(-c2[nH]c3cc(F)cc4c3c2CCNC4=O)cc1)C(=O)O[C@H](CS*)c1ccccc1; X10 = Cc1cc(COC(=O)N(C)Cc2ccc(-c3[nH]c4cc(F)cc5c4c3CCNC5=O)cc2)ccc1S*; X25 = COC[C@@H](CS*)OC(=O)N(C)Cc1ccc(-c2[nH]c3cc(F)cc4c3c2CCNC4=O)cc1; X3 = CN(Cc1ccc(-c2[nH]c3cc(F)cc4c3c2CCNC4=O)cc1)C(=O)OCc1ccc(S*)cc1; X9 = C[C@@H](COC(=O)N(C)Cc1ccc(-c2[nH]c3cc(F)cc4c3c2CCNC4=O)cc1)S*
Target: PARP (Homo sapiens, UniProt P09874)
Sequence (P09874 whole entry): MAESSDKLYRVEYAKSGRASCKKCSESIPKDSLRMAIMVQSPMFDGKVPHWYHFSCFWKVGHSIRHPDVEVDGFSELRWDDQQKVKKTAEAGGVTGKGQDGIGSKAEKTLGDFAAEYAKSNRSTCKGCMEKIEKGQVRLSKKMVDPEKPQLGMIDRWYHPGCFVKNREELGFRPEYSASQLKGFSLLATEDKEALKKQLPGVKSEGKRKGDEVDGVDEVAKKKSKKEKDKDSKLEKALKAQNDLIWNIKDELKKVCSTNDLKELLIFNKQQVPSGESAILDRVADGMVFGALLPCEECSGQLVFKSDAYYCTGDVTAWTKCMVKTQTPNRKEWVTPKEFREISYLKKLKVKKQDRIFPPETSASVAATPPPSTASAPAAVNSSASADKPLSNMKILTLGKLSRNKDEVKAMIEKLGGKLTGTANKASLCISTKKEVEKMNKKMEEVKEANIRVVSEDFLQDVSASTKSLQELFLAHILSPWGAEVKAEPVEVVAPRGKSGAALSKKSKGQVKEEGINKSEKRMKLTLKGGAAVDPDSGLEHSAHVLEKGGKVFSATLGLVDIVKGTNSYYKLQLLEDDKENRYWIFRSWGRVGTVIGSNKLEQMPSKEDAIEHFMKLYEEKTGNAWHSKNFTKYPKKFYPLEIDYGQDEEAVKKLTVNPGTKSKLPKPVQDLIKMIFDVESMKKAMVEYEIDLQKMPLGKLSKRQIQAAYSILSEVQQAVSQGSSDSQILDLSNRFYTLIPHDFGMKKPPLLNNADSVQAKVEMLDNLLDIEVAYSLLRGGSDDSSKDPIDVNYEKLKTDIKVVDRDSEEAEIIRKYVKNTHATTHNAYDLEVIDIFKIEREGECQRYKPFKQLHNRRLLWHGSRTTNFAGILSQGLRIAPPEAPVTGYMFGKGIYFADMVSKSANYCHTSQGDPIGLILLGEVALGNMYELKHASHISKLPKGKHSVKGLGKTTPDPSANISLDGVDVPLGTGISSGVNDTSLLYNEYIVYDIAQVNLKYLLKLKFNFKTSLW
Test: Enzymatic Assay 2: HT Universal Chemiluminescent PARP Assay of cleaved compounds;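 note: PARP reaction with activated DNA run 1 h at room temperature, product detected via streptavidin-HRP and luminescence endpoint reading on a plate reader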
Conditions: read-out: IC50 Enzymatic Assay 2; Examples cleaved per Example A (crude cleavage solution); R^8H starting materials as such

| Compound | IC50 [nM] |
| --- | --- |
| CC[C@H](C)[C@H](NC(=O)[C@@H]1CCCN1C(=O)[C@H](CC(N)=O)NC(=O)[C@H](CCC(N)=O)NC(=O)[C@H](CCC(=O)O)NC(=O)[C@H](C)N)C(=O)N[C@@H](Cc1ccc(O)cc1)C(=O)N[C@@H](Cc1c[nH]c2ccccc12)C(=O)N[C@@H](C)C(=O)N[C@@H](CCCNC(=N)N)C(=O)N[C@@H](Cc1ccc(O)cc1)C(=O)N[C@@H](C)C(=O)N[C@@H](CC(=O)O)C(=O)N[C@@H](Cc1c[nH]c2ccccc12)C(=O)N[C@@H](CC(C)C)C(=O)N[C@@H](Cc1ccccc1)C(=O)N[C@H](C(=O)N[C@H](C(=O)N1CCC[C@H]1C(=O)N[C@@H](CC(C)C)C(=O)N[C@@H](CC(C)C)C(=O)N[C@@H](CC(C)C)C(=O)N[C@@H](CC(C)C)C(=O)N[C@@H](CC(=O)O)C(=O)N[C@@H](CC(C)C)C(=O)N[C@@H](C)C(=O)N[C@@H](CC(C)C)C(=O)N[C@@H](CC(C)C)C(=O)N[C@H](C(=O)N[C@@H](CC(=O)O)C(=O)N[C@@H](C)C(=O)N[C@@H](CC(=O)O)C(=O)N[C@@H](CCC(=O)O)C(=O)N[C@@H](CSS[C@@H](C)COC(=O)N(C)Cc1ccc(-c2[nH]c3cc(F)cc4c3c2CCNC4=O)cc1)C(=O)NCC(=O)O)C(C)C)[C@@H](C)O)[C@@H](C)O [Example 22] (H-AEQNPIYWARYADWLFTTPLLLLDLALLVDADEC(X9)G-OH; N-terminus and C-terminus assumed) | 1.8 |
| CC(C)C[C@H](NC(=O)[C@H](Cc1ccc(O)cc1)NC(=O)[C@H](C)NC(=O)[C@H](CCCNC(=N)N)NC(=O)[C@H](Cc1c[nH]c2ccccc12)NC(=O)[C@@H]1CCCN1C(=O)[C@H](CC(N)=O)NC(=O)[C@H](CCC(N)=O)NC(=O)[C@H](CC(=O)O)NC(=O)[C@H](CC(=O)O)NC(=O)[C@H](C)N)C(=O)N[C@@H](CC(=O)O)C(=O)N[C@@H](CC(C)C)C(=O)N[C@@H](CC(C)C)C(=O)N[C@@H](Cc1ccccc1)C(=O)N1CCC[C@H]1C(=O)N[C@H](C(=O)N[C@@H](CC(=O)O)C(=O)N[C@H](C(=O)N[C@@H](CC(C)C)C(=O)N[C@@H](CC(C)C)C(=O)N[C@@H](CC(C)C)C(=O)N[C@@H](CC(=O)O)C(=O)N[C@@H](CC(C)C)C(=O)N[C@@H](CC(C)C)C(=O)N[C@@H](Cc1c[nH]c2ccccc12)C(=O)N[C@@H](CC(=O)O)C(=O)N[C@@H](C)C(=O)N[C@@H](CC(=O)O)C(=O)N[C@@H](CCC(=O)O)C(=O)N[C@@H](CSS[C@@H](C)COC(=O)N(C)Cc1ccc(-c2[nH]c3cc(F)cc4c3c2CCNC4=O)cc1)C(=O)NCC(=O)O)[C@@H](C)O)[C@@H](C)O [Example 23] | 2.5 |
| CC[C@H](C)[C@H](NC(=O)[C@@H]1CCCN1C(=O)[C@H](CC(N)=O)NC(=O)[C@H](CCC(N)=O)NC(=O)[C@H](CCC(=O)O)NC(=O)[C@H](C)N)C(=O)N[C@@H](Cc1ccc(O)cc1)C(=O)N[C@@H](Cc1c[nH]c2ccccc12)C(=O)N[C@@H](C)C(=O)N[C@@H](CCCNC(=N)N)C(=O)N[C@@H](Cc1ccc(O)cc1)C(=O)N[C@@H](C)C(=O)N[C@@H](CC(=O)O)C(=O)N[C@@H](Cc1c[nH]c2ccccc12)C(=O)N[C@@H](CC(C)C)C(=O)N[C@@H](Cc1ccccc1)C(=O)N[C@H](C(=O)N[C@H](C(=O)N1CCC[C@H]1C(=O)N[C@@H](CC(C)C)C(=O)N[C@@H](CC(C)C)C(=O)N[C@@H](CC(C)C)C(=O)N[C@@H](CC(C)C)C(=O)N[C@@H](CC(=O)O)C(=O)N[C@@H](CC(C)C)C(=O)N[C@@H](C)C(=O)N[C@@H](CC(C)C)C(=O)N[C@@H](CC(C)C)C(=O)N[C@H](C(=O)N[C@@H](CC(=O)O)C(=O)N[C@@H](C)C(=O)N[C@@H](CC(=O)O)C(=O)N[C@@H](CCC(=O)O)C(=O)N[C@@H](CSSC[C@@H](OC(=O)N(C)Cc1ccc(-c2[nH]c3cc(F)cc4c3c2CCNC4=O)cc1)c1ccccc1)C(=O)NCC(=O)O)C(C)C)[C@@H](C)O)[C@@H](C)O [Example 25] (H-AEQNPIYWARYADWLFTTPLLLLDLALLVDADEC(X24)G-OH; N-terminus and C-terminus assumed) | 3.4 |
| CC[C@H](C)[C@H](NC(=O)[C@@H]1CCCN1C(=O)[C@H](CC(N)=O)NC(=O)[C@H](CCC(N)=O)NC(=O)[C@H](CCC(=O)O)NC(=O)[C@H](C)N)C(=O)N[C@@H](Cc1ccc(O)cc1)C(=O)N[C@@H](Cc1c[nH]c2ccccc12)C(=O)N[C@@H](C)C(=O)N[C@@H](CCCNC(=N)N)C(=O)N[C@@H](Cc1ccc(O)cc1)C(=O)N[C@@H](C)C(=O)N[C@@H](CC(=O)O)C(=O)N[C@@H](Cc1c[nH]c2ccccc12)C(=O)N[C@@H](CC(C)C)C(=O)N[C@@H](Cc1ccccc1)C(=O)N[C@H](C(=O)N[C@H](C(=O)N1CCC[C@H]1C(=O)N[C@@H](CC(C)C)C(=O)N[C@@H](CC(C)C)C(=O)N[C@@H](CC(C)C)C(=O)N[C@@H](CC(C)C)C(=O)N[C@@H](CC(=O)O)C(=O)N[C@@H](CC(C)C)C(=O)N[C@@H](C)C(=O)N[C@@H](CC(C)C)C(=O)N[C@@H](CC(C)C)C(=O)N[C@H](C(=O)N[C@@H](CC(=O)O)C(=O)N[C@@H](C)C(=O)N[C@@H](CC(=O)O)C(=O)N[C@@H](CCC(=O)O)C(=O)N[C@@H](CSSC[C@@H](OC(=O)N(C)Cc1ccc(-c2[nH]c3cc(F)cc4c3c2CCNC4=O)cc1)C(=O)OC)C(=O)NCC(=O)O)C(C)C)[C@@H](C)O)[C@@H](C)O [Example 26] (H-AEQNPIYWARYADWLFTTPLLLLDLALLVDADEC(X23)G-OH; N-terminus and C-terminus assumed) | 2 |
| CC[C@H](C)[C@H](NC(=O)[C@@H]1CCCN1C(=O)[C@H](CC(N)=O)NC(=O)[C@H](CCC(N)=O)NC(=O)[C@H](CCC(=O)O)NC(=O)[C@H](C)N)C(=O)N[C@@H](Cc1ccc(O)cc1)C(=O)N[C@@H](Cc1c[nH]c2ccccc12)C(=O)N[C@@H](C)C(=O)N[C@@H](CCCNC(=N)N)C(=O)N[C@@H](Cc1ccc(O)cc1)C(=O)N[C@@H](C)C(=O)N[C@@H](CC(=O)O)C(=O)N[C@@H](Cc1c[nH]c2ccccc12)C(=O)N[C@@H](CC(C)C)C(=O)N[C@@H](Cc1ccccc1)C(=O)N[C@H](C(=O)N[C@H](C(=O)N1CCC[C@H]1C(=O)N[C@@H](CC(C)C)C(=O)N[C@@H](CC(C)C)C(=O)N[C@@H](CC(C)C)C(=O)N[C@@H](CC(C)C)C(=O)N[C@@H](CC(=O)O)C(=O)N[C@@H](CC(C)C)C(=O)N[C@@H](C)C(=O)N[C@@H](CC(C)C)C(=O)N[C@@H](CC(C)C)C(=O)N[C@H](C(=O)N[C@@H](CC(=O)O)C(=O)N[C@@H](C)C(=O)N[C@@H](CC(=O)O)C(=O)N[C@@H](CCC(=O)O)C(=O)N[C@@H](CSSC[C@H](COC)OC(=O)N(C)Cc1ccc(-c2[nH]c3cc(F)cc4c3c2CCNC4=O)cc1)C(=O)NCC(=O)O)C(C)C)[C@@H](C)O)[C@@H](C)O [Example 27] (H-AEQNPIYWARYADWLFTTPLLLLDLALLVDADEC(X25)G-OH; N-terminus and C-terminus assumed) | 3.9 |
| CC[C@H](C)[C@H](NC(=O)[C@@H]1CCCN1C(=O)[C@H](CC(N)=O)NC(=O)[C@H](CCC(N)=O)NC(=O)[C@H](CCC(=O)O)NC(=O)[C@H](C)N)C(=O)N[C@@H](Cc1ccc(O)cc1)C(=O)N[C@@H](Cc1c[nH]c2ccccc12)C(=O)N[C@@H](C)C(=O)N[C@@H](CCCNC(=N)N)C(=O)N[C@@H](Cc1ccc(O)cc1)C(=O)N[C@@H](C)C(=O)N[C@@H](CC(=O)O)C(=O)N[C@@H](Cc1c[nH]c2ccccc12)C(=O)N[C@@H](CC(C)C)C(=O)N[C@@H](Cc1ccccc1)C(=O)N[C@H](C(=O)N[C@H](C(=O)N1CCC[C@H]1C(=O)N[C@@H](CC(C)C)C(=O)N[C@@H](CC(C)C)C(=O)N[C@@H](CC(C)C)C(=O)N[C@@H](CC(C)C)C(=O)N[C@@H](CC(=O)O)C(=O)N[C@@H](CC(C)C)C(=O)N[C@@H](C)C(=O)N[C@@H](CC(C)C)C(=O)N[C@@H](CC(C)C)C(=O)N[C@H](C(=O)N[C@@H](CC(=O)O)C(=O)N[C@@H](C)C(=O)N[C@@H](CC(=O)O)C(=O)N[C@@H](CCC(=O)O)C(=O)N[C@@H](CSSc1ccc(COC(=O)N(C)Cc2ccc(-c3[nH]c4cc(F)cc5c4c3CCNC5=O)cc2)cc1)C(=O)NCC(=O)O)C(C)C)[C@@H](C)O)[C@@H](C)O [Example 28] (H-AEQNPIYWARYADWLFTTPLLLLDLALLVDADEC(X3)G-OH; N-terminus and C-terminus assumed) | 2.4 |
| CC[C@H](C)[C@H](NC(=O)[C@@H]1CCCN1C(=O)[C@H](CC(N)=O)NC(=O)[C@H](CCC(N)=O)NC(=O)[C@H](CCC(=O)O)NC(=O)[C@H](C)N)C(=O)N[C@@H](Cc1ccc(O)cc1)C(=O)N[C@@H](Cc1c[nH]c2ccccc12)C(=O)N[C@@H](C)C(=O)N[C@@H](CCCNC(=N)N)C(=O)N[C@@H](Cc1ccc(O)cc1)C(=O)N[C@@H](C)C(=O)N[C@@H](CC(=O)O)C(=O)N[C@@H](Cc1c[nH]c2ccccc12)C(=O)N[C@@H](CC(C)C)C(=O)N[C@@H](Cc1ccccc1)C(=O)N[C@H](C(=O)N[C@H](C(=O)N1CCC[C@H]1C(=O)N[C@@H](CC(C)C)C(=O)N[C@@H](CC(C)C)C(=O)N[C@@H](CC(C)C)C(=O)N[C@@H](CC(C)C)C(=O)N[C@@H](CC(=O)O)C(=O)N[C@@H](CC(C)C)C(=O)N[C@@H](C)C(=O)N[C@@H](CC(C)C)C(=O)N[C@@H](CC(C)C)C(=O)N[C@H](C(=O)N[C@@H](CC(=O)O)C(=O)N[C@@H](C)C(=O)N[C@@H](CC(=O)O)C(=O)N[C@@H](CCC(=O)O)C(=O)N[C@@H](CSSc1ccc(COC(=O)N(C)Cc2ccc(-c3[nH]c4cc(F)cc5c4c3CCNC5=O)cc2)cc1C)C(=O)NCC(=O)O)C(C)C)[C@@H](C)O)[C@@H](C)O [Example 29] (H-AEQNPIYWARYADWLFTTPLLLLDLALLVDADEC(X10)G-OH; N-terminus and C-terminus assumed) | 6.4 |

Reference: patent US12427157B2, “Methods for treatment of diseases involving acidic or hypoxic diseased tissues” (Cybrexa 1, Inc., priority 2018, dated 2025)
